From article PMC10709440, “High-throughput ligand profile characterization in novel cell lines expressing seven heterologous insect olfactory receptors for the detection of volatile plant biomarkers” (Scientific Reports, 2023)
Read-outs that look alike come from different tables or passages of the source.

What was measured:
[1] = biological target: T1, Drosophila OR98a (Drosophila melanogaster, UniProt Q9VAZ3); assay: Calcium ion fluorescence (GCaMP6) assay, OR98a stable HEK293 cell line; type: cell-based; details: for OR98a response (VUAA1-normalized) at 1 μM / OR98a response (VUAA1-normalized) at 10 μM / OR98a response (VUAA1-normalized) at 100 μM / Average response: OR98a cell line; for Average response: average of biological replicates, fraction of VUAA1 response
T1 construct: expressed in transfected cells
T1 sequence (Q9VAZ3 1-397): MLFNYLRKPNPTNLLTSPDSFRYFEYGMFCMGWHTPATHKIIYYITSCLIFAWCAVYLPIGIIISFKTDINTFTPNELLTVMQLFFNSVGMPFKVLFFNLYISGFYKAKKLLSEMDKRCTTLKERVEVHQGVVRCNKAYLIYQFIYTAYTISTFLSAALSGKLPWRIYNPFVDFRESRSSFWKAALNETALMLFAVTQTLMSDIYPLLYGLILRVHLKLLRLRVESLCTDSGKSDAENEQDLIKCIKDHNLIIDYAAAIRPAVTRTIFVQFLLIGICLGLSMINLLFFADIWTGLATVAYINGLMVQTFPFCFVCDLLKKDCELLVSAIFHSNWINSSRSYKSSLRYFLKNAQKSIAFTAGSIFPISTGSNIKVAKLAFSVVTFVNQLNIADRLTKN
T1 sequence (Q9VNB5 1-486 partner): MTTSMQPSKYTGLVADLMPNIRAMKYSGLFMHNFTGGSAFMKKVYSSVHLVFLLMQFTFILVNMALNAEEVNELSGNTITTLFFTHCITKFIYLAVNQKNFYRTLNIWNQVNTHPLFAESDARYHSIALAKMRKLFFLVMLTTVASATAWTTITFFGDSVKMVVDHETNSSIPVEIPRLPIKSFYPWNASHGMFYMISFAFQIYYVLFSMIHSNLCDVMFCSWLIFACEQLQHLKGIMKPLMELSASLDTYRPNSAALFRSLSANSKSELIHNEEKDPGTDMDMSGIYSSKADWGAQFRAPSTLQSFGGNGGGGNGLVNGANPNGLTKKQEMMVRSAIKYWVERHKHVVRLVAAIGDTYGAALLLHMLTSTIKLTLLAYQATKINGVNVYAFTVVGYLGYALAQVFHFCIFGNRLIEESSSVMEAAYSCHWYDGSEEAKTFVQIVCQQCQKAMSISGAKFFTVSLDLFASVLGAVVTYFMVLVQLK
Method in brief: (§1)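 HEK293 lines stably expressing each Drosophila OR with GCaMP6, doxycycline-induced (1 μg/mL) 48 or 72 h. Fluorescence recorded 5 s baseline then 30 s after VOC injection at pH 7.3; ΔF=(FMAX−F0)/F0, normalized to 50 µM VUAA1 response per line, triplicate wells averaged; concentration series 0.01–100 μM.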

[2] = biological target: T2, Drosophila OR13a (Drosophila melanogaster, UniProt Q9VXL0); assay: Calcium ion fluorescence (GCaMP6) assay, OR13a stable HEK293 cell line; type: cell-based; details: for activation at 1 µM: HEK293, read-out: OR13a Average response (VUAA1-normalized), 1 μM VOC; for activation at 1 µM / activation at 10 µM / activation at 100 µM / OR13a Average response (VUAA1-normalized): 50 μM VUAA1 = 1, responses not exceeding 0.05 considered 0; for activation at 10 µM: HEK293, read-out: OR13a Average response (VUAA1-normalized), 10 μM VOC; for activation at 100 µM: HEK293, read-out: OR13a Average response (VUAA1-normalized), 100 μM VOC; for OR13a response (VUAA1-normalized) at 1 μM / OR13a response (VUAA1-normalized) at 10 μM / OR13a response (VUAA1-normalized) at 100 μM: OR13a cell line
T2 construct: expressed in transfected cells
T2 sequence (Q9VXL0 1-418): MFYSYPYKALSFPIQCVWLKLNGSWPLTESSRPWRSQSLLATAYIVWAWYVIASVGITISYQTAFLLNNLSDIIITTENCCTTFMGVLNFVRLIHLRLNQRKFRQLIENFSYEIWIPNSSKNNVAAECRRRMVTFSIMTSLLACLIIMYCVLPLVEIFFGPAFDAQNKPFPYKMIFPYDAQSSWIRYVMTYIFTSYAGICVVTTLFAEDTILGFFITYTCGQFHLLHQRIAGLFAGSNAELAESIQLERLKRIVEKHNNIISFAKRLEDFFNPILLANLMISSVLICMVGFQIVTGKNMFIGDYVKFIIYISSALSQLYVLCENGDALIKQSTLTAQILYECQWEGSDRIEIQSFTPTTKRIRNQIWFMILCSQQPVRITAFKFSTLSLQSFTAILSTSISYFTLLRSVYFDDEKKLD
T2 sequence (Q9VNB5 1-486 partner): T1 sequence (Q9VNB5 1-486 partner)
Method in brief: as §1

[3] = HEK293, read-out: Average response
[4] = ligand concentration 1 (unit not given), 0.05 threshold, values below shown as 0
[5] = ligand concentration 10 (unit not given), 0.05 threshold, values below shown as 0
[6] = ligand concentration 100 (unit not given), 0.05 threshold, values below shown as 0
[7] = HEK293, read-out: OR98a Average response (VUAA1-normalized)
[8] = concentration 1, normalized fluorescence change, values below 0.05 threshold given as 0
[9] = concentration 10, normalized fluorescence change, values below 0.05 threshold given as 0
[10] = concentration 100, normalized fluorescence change, values below 0.05 threshold given as 0

| Compound | activation at 1 µM [1, 3] [%] | activation at 10 µM [1, 3] [%] | activation at 100 µM [1, 3] [%] | OR98a response (VUAA1-normalized) at 1 μM ([1]; VOC concentration 1 μM) | OR98a response (VUAA1-normalized) at 10 μM ([1]; VOC concentration 10 μM) | OR98a response (VUAA1-normalized) at 100 μM ([1]; VOC concentration 100 μM) | DF norm AVERAGE OR98a [1, 4] | DF norm AVERAGE OR98a [1, 5] | DF norm AVERAGE OR98a [1, 6] | activation at 1 µM [2] [%] | activation at 10 µM [2] [%] | activation at 100 µM [2] [%] | OR13a response (VUAA1-normalized) at 1 μM ([2]; VOC concentration 1 μM) | OR13a response (VUAA1-normalized) at 10 μM ([2]; VOC concentration 10 μM) | OR13a response (VUAA1-normalized) at 100 μM ([2]; VOC concentration 100 μM) | DF norm AVERAGE OR13a [2, 4] | DF norm AVERAGE OR13a [2, 5] | DF norm AVERAGE OR13a [2, 6] | OR98a response (VUAA1-normalized response) ([1]; VOC concentration 1 μM) | OR98a response (VUAA1-normalized response) ([1]; VOC concentration 10 μM) | further results |
| --- | --- | --- | --- | --- | --- | --- | --- | --- | --- | --- | --- | --- | --- | --- | --- | --- | --- | --- | --- | --- | --- |
| Cc1ccccc1 [toluene] | 0 | 4 | 3.33 | 0.00 | 0.00 | 0.00 | 0 | 0 | 0 | 0 | 0 | 0 | 0.00 | 0.00 | 0.00 | 0 | 0 | 0 |  |  |  |
| CCCCCCCCCCC [undecane] | 2.26 | 0 | 8 | 0.00 | 0.00 | 0.08 | 0 | 0 | 0.08228 | 0 | 0 | 0 | 0.00 | 0.00 | 0.00 | 0 | 0 | 0 |  |  |  |
| CC/C=C\CCOC(C)=O [z3-hexenyl acetate] | 0 | 1.43 | 10 |  |  |  | 0 | 0 | 0.1048 | 0 | 2.61 | 9 |  |  |  | 0 | 0 | 0.09283 |  |  | activation at 1 µM [1, 7]: 0%; activation at 10 µM [1, 7]: 1%; activation at 100 µM [1, 7]: 10% |
| CC1=CCC23CC1C(C)(C)C2CCC3C (stereo not drawn) [α-funebrene] | 0 | 9 | 5 | 0.00 | 0.09 | 0.05 | 0 | 0.08582 | 0.05199 | 0 | 0 | 0 | 0.00 | 0.00 | 0.00 | 0 | 0 | 0 |  |  |  |
| (+)-beta-cedrene |  |  |  |  |  |  |  |  |  |  |  |  |  |  |  |  |  |  | 0.0855 | 0.06 | OR98a response (VUAA1-normalized response) ([1]; VOC concentration 100 μM): 0.06; Average response ([1]; cc. 1 µM): 0.0855; Average response ([1]; cc. 10 µM): 0.06; Average response ([1]; cc. 100 µM): 0.06; DF norm AVERAGE OR98a [1, 8]: 0.08554; DF norm AVERAGE OR98a [1, 9]: 0.05985; DF norm AVERAGE OR98a [1, 10]: 0.06078; OR13a Average response (VUAA1-normalized) ([2]; 1 μM VOC): 0.00; OR13a Average response (VUAA1-normalized) ([2]; 10 μM VOC): 0.00; OR13a Average response (VUAA1-normalized) ([2]; 100 μM VOC): 0.00; OR13a response (VUAA1-normalized response) ([2]; VOC concentration 1 μM): 0.00; OR13a response (VUAA1-normalized response) ([2]; VOC concentration 10 μM): 0.00; OR13a response (VUAA1-normalized response) ([2]; VOC concentration 100 μM): 0.00; DF norm AVERAGE OR13a [2, 8]: 0; DF norm AVERAGE OR13a [2, 9]: 0; DF norm AVERAGE OR13a [2, 10]: 0 |
| (-)-alpha-cedrene |  |  |  |  |  |  |  |  |  |  |  |  |  |  |  |  |  |  | 0.00 | 0.00 | OR98a response (VUAA1-normalized response) ([1]; VOC concentration 100 μM): 0.00; Average response ([1]; cc. 1 µM): 0.00; Average response ([1]; cc. 10 µM): 0.0421; Average response ([1]; cc. 100 µM): 0.0341; DF norm AVERAGE OR98a [1, 8]: 0; DF norm AVERAGE OR98a [1, 9]: 0; DF norm AVERAGE OR98a [1, 10]: 0; OR13a Average response (VUAA1-normalized) ([2]; 1 μM VOC): 0.00; OR13a Average response (VUAA1-normalized) ([2]; 10 μM VOC): 0.00; OR13a Average response (VUAA1-normalized) ([2]; 100 μM VOC): 0.00; OR13a response (VUAA1-normalized response) ([2]; VOC concentration 1 μM): 0.00; OR13a response (VUAA1-normalized response) ([2]; VOC concentration 10 μM): 0.00; OR13a response (VUAA1-normalized response) ([2]; VOC concentration 100 μM): 0.00; DF norm AVERAGE OR13a [2, 8]: 0; DF norm AVERAGE OR13a [2, 9]: 0; DF norm AVERAGE OR13a [2, 10]: 0 |
